Test results reported in the supplement of paper PMC8612539.
Values after ≈ are worked out from the molar mass of the structure shown.

Assays:
[1] = system: Mannheimia haemolytica; test: minimum inhibitory concentration (MIC)
Protocol: (§1)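 Broth microdilution MIC (Sensititre BOPO7F bovine plate, CLSI methods) of 19 antimicrobials against field isolates of P. multocida, M. haemolytica, H. somni (deep nasopharyngeal swabs) and E. coli, Enterococcus spp. (rectal swabs) from weaned dairy heifers. Incubation 16-24 h at 35 C. MIC is the lowest concentration preventing visible growth. Values with <= or > lie at the tested range limits. Trimethoprim-sulfamethoxazole is given as the trimethoprim component of a 1:19 mixture.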

[2] = system: Enterococcus spp.; test: minimum inhibitory concentration (MIC)
Protocol: as §1

CC[C@H]1OC(=O)C[C@@H](O)[C@H](C)[C@@H](O[C@@H]2O[C@H](C)[C@@H](O)[C@H](N(C)C)[C@H]2O)[C@@H](CCN2C[C@H](C)C[C@H](C)C2)C[C@@H](C)C(=O)/C=C/C(C)=C/[C@@H]1CO[C@@H]1O[C@H](C)[C@@H](O)[C@@H](OC)[C@H]1OC [Tilmicosin]
minimum inhibitory concentration [µg/mL]
Conditions | [1] | [2]
isolate (source animal id): 2 | – | 8 (≈ 9.2 µM)
isolate (source animal id): 8 | 4 (≈ 4.6 µM) | –
isolate (source animal id): 13 | 4 (≈ 4.6 µM) | –
isolate (source animal id): 18 | 4 (≈ 4.6 µM) | –
isolate (source animal id): 21 | 4 (≈ 4.6 µM) | –
isolate (source animal id): 25 | > 16 | –
isolate (source animal id): 27 | > 16 | –
isolate (source animal id): 28 | 16 (≈ 18.4 µM) | –
isolate (source animal id): 30 | 8 (≈ 9.2 µM) | –
isolate (source animal id): 31 | > 16 | –
isolate (source animal id): 32 | 4 (≈ 4.6 µM) | –
isolate (source animal id): 34 | 8 (≈ 9.2 µM) | –
isolate (source animal id): 35 | – | > 16
isolate (source animal id): 36 | > 16 | –
isolate (source animal id): 37 | > 16 | –
isolate (source animal id): 40 | 4 (≈ 4.6 µM) | –
isolate (source animal id): 41 | 4 (≈ 4.6 µM) | –
isolate (source animal id): 42 | – | 8 (≈ 9.2 µM)
isolate (source animal id): 43 | 4 (≈ 4.6 µM) | –
isolate (source animal id): 44 | – | 8 (≈ 9.2 µM)
isolate (source animal id): 46 | > 16 | –
isolate (source animal id): 49 | > 16 | –
isolate (source animal id): 50 | > 16 | –
isolate (source animal id): 51 | 4 (≈ 4.6 µM) | –
isolate (source animal id): 52 | 4 (≈ 4.6 µM) | –
isolate (source animal id): 53 | 4 (≈ 4.6 µM) | –
isolate (source animal id): 55 | 4 (≈ 4.6 µM) | –
isolate (source animal id): 56 | 4 (≈ 4.6 µM) | –
isolate (source animal id): 57 | > 16 | –
isolate (source animal id): 79 | – | 8 (≈ 9.2 µM)
isolate (source animal id): 88 | – | 8 (≈ 9.2 µM)
isolate (source animal id): 91 | – | 8 (≈ 9.2 µM)
isolate (source animal id): 92 | – | 16 (≈ 18.4 µM)
isolate (source animal id): 100 | > 16 | –
isolate (source animal id): 103 | > 16 | –
isolate (source animal id): 107 | 16 (≈ 18.4 µM) | –
isolate (source animal id): 108 | 16 (≈ 18.4 µM) | –
isolate (source animal id): 111 | – | 8 (≈ 9.2 µM)
isolate (source animal id): 112 | > 16 | –
isolate (source animal id): 113 | > 16 | –
isolate (source animal id): 121 | > 16 | –
isolate (source animal id): 122 | > 16 | > 16
isolate (source animal id): 123 | > 16 | 8 (≈ 9.2 µM)
isolate (source animal id): 126 | > 16 | –
isolate (source animal id): 133 | > 16 | 8 (≈ 9.2 µM)
isolate (source animal id): 135 | > 16 | –
isolate (source animal id): 138 | > 16 | –
isolate (source animal id): 141 | > 16 | –
isolate (source animal id): 142 | > 16 | –
isolate (source animal id): 145 | 16 (≈ 18.4 µM) | –
isolate (source animal id): 149 | 8 (≈ 9.2 µM) | –
isolate (source animal id): 151 | 8 (≈ 9.2 µM) | –
isolate (source animal id): 152 | > 16 | –
isolate (source animal id): 154 | 8 (≈ 9.2 µM) | –
isolate (source animal id): 158 | – | > 16
isolate (source animal id): 159 | > 16 | –
isolate (source animal id): 162 | > 16 | –
isolate (source animal id): 168 | – | 16 (≈ 18.4 µM)
isolate (source animal id): 169 | – | 16 (≈ 18.4 µM)
isolate (source animal id): 170 | 16 (≈ 18.4 µM) | –
isolate (source animal id): 171 | 8 (≈ 9.2 µM) | 16 (≈ 18.4 µM)
isolate (source animal id): 172 | 16 (≈ 18.4 µM) | –
isolate (source animal id): 173 | 16 (≈ 18.4 µM) | –
isolate (source animal id): 175 | – | > 16
isolate (source animal id): 177 | – | 16 (≈ 18.4 µM)
isolate (source animal id): 179 | 8 (≈ 9.2 µM) | –
isolate (source animal id): 180 | 4 (≈ 4.6 µM) | –
isolate (source animal id): 181 | – | 8 (≈ 9.2 µM)
isolate (source animal id): 182 | – | 16 (≈ 18.4 µM)
isolate (source animal id): 183 | 4 (≈ 4.6 µM) | 8 (≈ 9.2 µM)
isolate (source animal id): 186 | 4 (≈ 4.6 µM) | –
isolate (source animal id): 187 | 8 (≈ 9.2 µM) | 16 (≈ 18.4 µM)
isolate (source animal id): 188 | 4 (≈ 4.6 µM) | –
isolate (source animal id): 190 | 4 (≈ 4.6 µM) | 8 (≈ 9.2 µM)
isolate (source animal id): 191 | 16 (≈ 18.4 µM) | –
isolate (source animal id): 192 | 8 (≈ 9.2 µM) | –
isolate (source animal id): 194 | – | 8 (≈ 9.2 µM)
isolate (source animal id): 195 | – | 8 (≈ 9.2 µM)
isolate (source animal id): 197 | – | 8 (≈ 9.2 µM)
isolate (source animal id): 201 | 16 (≈ 18.4 µM) | –
isolate (source animal id): 202 | 16 (≈ 18.4 µM) | –
isolate (source animal id): 209 | 16 (≈ 18.4 µM) | –
isolate (source animal id): 211 | 16 (≈ 18.4 µM) | 8 (≈ 9.2 µM)
isolate (source animal id): 214 | – | 8 (≈ 9.2 µM)
isolate (source animal id): 220 | 16 (≈ 18.4 µM) | –
isolate (source animal id): 221 | 8 (≈ 9.2 µM) | –
isolate (source animal id): 222 | – | 8 (≈ 9.2 µM)
isolate (source animal id): 223 | 8 (≈ 9.2 µM) | 8 (≈ 9.2 µM)
isolate (source animal id): 228 | – | > 16
isolate (source animal id): 230 | – | > 16
isolate (source animal id): 233 | 8 (≈ 9.2 µM) | –
isolate (source animal id): 235 | – | > 16
isolate (source animal id): 236 | – | 8 (≈ 9.2 µM)
isolate (source animal id): 237 | > 16 | –
isolate (source animal id): 239 | – | 4 (≈ 4.6 µM)
isolate (source animal id): 241 | > 16 | > 16
isolate (source animal id): 244 | – | 16 (≈ 18.4 µM)
isolate (source animal id): 246 | – | 16 (≈ 18.4 µM)
isolate (source animal id): 247 | – | > 16
isolate (source animal id): 250 | – | 16 (≈ 18.4 µM)
isolate (source animal id): 252 | > 16 | > 16
isolate (source animal id): 253 | > 16 | –
isolate (source animal id): 259 | > 16 | –
isolate (source animal id): 260 | > 16 | –
isolate (source animal id): 262 | > 16 | –
isolate (source animal id): 268 | – | > 16
isolate (source animal id): 282 | > 16 | 8 (≈ 9.2 µM)
isolate (source animal id): 285 | – | > 16
isolate (source animal id): 287 | > 16 | –
isolate (source animal id): 288 | 4 (≈ 4.6 µM) | –
isolate (source animal id): 289 | – | 16 (≈ 18.4 µM)
isolate (source animal id): 290 | – | 8 (≈ 9.2 µM)
isolate (source animal id): 291 | 4 (≈ 4.6 µM) | –
isolate (source animal id): 293 | > 16 | –
isolate (source animal id): 296 | – | 8 (≈ 9.2 µM)
isolate (source animal id): 298 | > 16 | 4 (≈ 4.6 µM)
isolate (source animal id): 299 | > 16 | –
isolate (source animal id): 300 | 8 (≈ 9.2 µM) | –
isolate (source animal id): 301 | – | 8 (≈ 9.2 µM)
isolate (source animal id): 302 | > 16 | –
isolate (source animal id): 304 | > 16 | –
isolate (source animal id): 306 | 4 (≈ 4.6 µM) | –
isolate (source animal id): 308 | 4 (≈ 4.6 µM) | –
isolate (source animal id): 309 | 4 (≈ 4.6 µM) | –
isolate (source animal id): 310 | – | > 16
isolate (source animal id): 313 | > 16 | –
isolate (source animal id): 318 | > 16 | –
isolate (source animal id): 320 | 8 (≈ 9.2 µM) | 8 (≈ 9.2 µM)
isolate (source animal id): 321 | > 16 | –
isolate (source animal id): 323 | > 16 | –
isolate (source animal id): 324 | > 16 | –
isolate (source animal id): 326 | > 16 | –
isolate (source animal id): 328 | > 16 | –
isolate (source animal id): 329 | > 16 | –
isolate (source animal id): 331 | – | 8 (≈ 9.2 µM)
isolate (source animal id): 333 | > 16 | 8 (≈ 9.2 µM)
isolate (source animal id): 335 | > 16 | –
isolate (source animal id): 338 | > 16 | –
isolate (source animal id): 341 | – | > 16
